{"source": "paper PMC11802822", "about": "“Comprehensive safety and toxicity analysis of 2,2’-Bipyridine derivatives in combating MRSA biofilm formation and persistence” (Frontiers in Cellular and Infection Microbiology, 2025)", "key": {"MRSA 831 [1]": {"system": "MRSA 831", "assay": "Broth microdilution MIC", "conditions": "Staphylococcus aureus, MRSA, 18 h, read-out: Minimum inhibitory concentration"}, "S. aureus (MTCC737) [2]": {"system": "S. aureus (MTCC737)", "assay": "Broth microdilution MIC", "conditions": "Staphylococcus aureus, MTCC737, 18 h, read-out: Minimum inhibitory concentration"}, "MRSA 831 [3]": {"system": "MRSA 831", "assay": "Biofilm imaging by confocal laser scanning microscopy (SYTO 9/PI)", "assay_type": "cell-based, methicillin-resistant S. aureus", "conditions": "derivatives 100 µg/ml, 24 h", "description": "Untreated wells were used as a control. […] Using SYTO 9 and PI dyes. […] Two independent experiments were done in triplicate."}, "MRSA 831 (MRSA)": {"system": "MRSA 831 (MRSA)", "assay": "Agar well diffusion", "conditions": "Staphylococcus aureus, MRSA"}, "red blood cells": {"system": "red blood cells", "conditions": "ref Chen et al., 2011; Papalia et al., 2021; cited from earlier work"}, "MTCC 737 persister cells": {"system": "MTCC 737 persister cells", "assay": "Persister killing assay", "assay_type": "cell-based, Staphylococcus aureus", "conditions": "S. aureus persisters", "experimental": "To evaluate the persister-killing activity of 2,2’-Bipy derivatives, MTCC 737 and MRSA 831 cells were grown overnight to the stationary phase at 37°C ([Kim et al., 2018b]). […] The bacterial densities of persisters were recorded at OD600 at hourly intervals from 0 to 6 h."}, "MRSA 831 [4]": {"system": "MRSA 831", "assay": "Transmission electron microscopy", "conditions": "100 µg/ml, 12 h"}, "MTCC 737 [5]": {"system": "MTCC 737", "assay": "Neutropenic thigh infection model in mice", "assay_type": "in vivo, Staphylococcus aureus", "conditions": "neutropenic BALB/c mice, MTCC 737 10^6 CFU/ml, oral 30 mg/kg, 48 h, vs untreated group"}, "MRSA 831 [6]": {"system": "MRSA 831", "assay": "Neutropenic thigh infection model in mice", "conditions": "neutropenic BALB/c mice, MRSA 831 10^8 CFU/ml, oral 30 mg/kg, after 2 h and 24 h, vs untreated control"}, "MTCC 737 [7]": {"system": "MTCC 737", "assay": "Transmission electron microscopy", "conditions": "S. aureus MTCC 737; 100 µg/ml, 12 h"}, "S. aureus (MTCC737) [8]": {"system": "S. aureus (MTCC737)", "assay": "Agar well diffusion", "conditions": "Staphylococcus aureus, MTCC737"}, "MTCC 737 [9]": {"system": "MTCC 737", "assay": "Biofilm imaging by confocal laser scanning microscopy (SYTO 9/PI)", "conditions": "derivatives 100 µg/ml, 24 h"}}, "data": [{"molecule": "CN[C@H](CC(C)C)C(=O)N[C@H]1C(=O)N[C@@H](CC(N)=O)C(=O)N[C@H]2C(=O)N[C@H]3C(=O)N[C@H](C(=O)N[C@H](C(=O)O)c4cc(O)cc(O)c4-c4cc3ccc4O)[C@H](O)c3ccc(c(Cl)c3)Oc3cc2cc(c3O[C@@H]2O[C@H](CO)[C@@H](O)[C@H](O)[C@H]2O[C@H]2C[C@](C)(N)[C@H](O)[C@H](C)O2)Oc2ccc(cc2Cl)[C@H]1O", "note": "[Vancomycin, reference compound]", "values": [{"measurement": "MIC", "setting": "MRSA 831 [1]", "result": 6.25, "unit": "µg/mL"}, {"measurement": "MIC", "setting": "S. aureus (MTCC737) [2]", "result": 6.25, "unit": "µg/mL"}, {"measurement": "Biofilm disruption (CLSM)", "setting": "MRSA 831 [3]", "result": "effective biofilm disruption and severe cell damage"}, {"measurement": "zone of inhibition at 50 µg/mL", "setting": "MRSA 831 (MRSA)", "result": 12, "unit": "mm"}, {"measurement": "Concentration up to which non-hemolytic", "setting": "red blood cells", "result": "up to 32 µg/ml"}, {"measurement": "Concentration showing similar activity on persister cell counts", "setting": "MTCC 737 persister cells", "result": 100, "unit": "µg/mL"}, {"measurement": "Cell morphology (TEM)", "setting": "MRSA 831 [4]", "result": "distorted morphology"}, {"measurement": "Reduction in the bacterial load in thigh tissue", "setting": "MTCC 737 [5]", "result": "approximately 1.9 log10"}, {"measurement": "Reduction in the bacterial load in thigh tissue", "setting": "MRSA 831 [6]", "result": "approximately 1.9 log10"}, {"measurement": "Cell morphology (TEM)", "setting": "MTCC 737 [7]", "result": "distorted morphology"}, {"measurement": "zone of inhibition at 50 µg/mL", "setting": "S. aureus (MTCC737) [8]", "result": 14, "unit": "mm"}, {"measurement": "Biofilm disruption (CLSM)", "setting": "MTCC 737 [9]", "result": "effective biofilm disruption and severe cell damage"}]}]}
